Experimental data from ChEMBL document CHEMBL1201862, “PubChem BioAssay data set” (2004).
Activity calls are given as the source filed them.

Assays:
Caspase-3 = molecular target: T1, Caspase-3 (Homo sapiens, UniProt P42574); assay: activation of caspase-3 zymogen – biochemical, absorbance, dose response (AID 489014)
T1 sequence (P42574 whole entry): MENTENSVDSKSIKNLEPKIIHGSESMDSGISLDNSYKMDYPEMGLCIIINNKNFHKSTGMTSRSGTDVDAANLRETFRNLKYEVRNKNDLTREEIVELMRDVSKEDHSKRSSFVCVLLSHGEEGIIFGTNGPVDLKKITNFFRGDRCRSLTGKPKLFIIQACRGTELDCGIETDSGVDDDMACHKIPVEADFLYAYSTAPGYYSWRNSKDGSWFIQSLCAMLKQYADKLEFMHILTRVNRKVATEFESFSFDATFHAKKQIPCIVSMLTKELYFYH

Caspase-7 = molecular target: T2, Caspase-7 (Homo sapiens, UniProt P55210); assay: activation of caspase-7 zymogen – biochemical, absorbance, counter-screen for procaspase-3 activator project, dose response (AID 489013)
T2 sequence (P55210 whole entry): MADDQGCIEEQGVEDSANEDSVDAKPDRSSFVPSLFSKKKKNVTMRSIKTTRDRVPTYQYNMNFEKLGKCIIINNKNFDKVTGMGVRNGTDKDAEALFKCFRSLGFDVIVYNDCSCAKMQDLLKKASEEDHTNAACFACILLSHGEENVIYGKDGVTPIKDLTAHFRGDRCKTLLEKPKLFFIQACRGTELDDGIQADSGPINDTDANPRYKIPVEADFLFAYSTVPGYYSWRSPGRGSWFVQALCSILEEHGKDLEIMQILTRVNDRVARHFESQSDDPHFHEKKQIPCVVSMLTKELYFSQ

[1] = molecular target: T3, Endoribonuclease toxin MazF (Escherichia coli K-12, UniProt P0AE70); assay: activation of MazEF endoribonuclease cleavage – biochemical, fluorescence, single-stranded RNA substrate, uHTS hits, dose response (AID 588481); format: functional
T3 sequence (P0AE70 whole entry): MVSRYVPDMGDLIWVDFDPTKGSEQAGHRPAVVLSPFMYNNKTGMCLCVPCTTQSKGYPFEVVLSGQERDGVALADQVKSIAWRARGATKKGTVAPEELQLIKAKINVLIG

[2] = molecular target: T3, Endoribonuclease toxin MazF; assay: substrate-only fluorescence increase artefacts – biochemical, single-stranded RNase substrate, counter-screen for MazEF activator project, dose response (AID 588502); format: functional
T-cell = assay: loss of vesicle association with mouse CD8+ T cells – mouse 2C CD8+ T cells, flow cytometry, dose response (AID 485284); format: functional
[3] = molecular target: T4, G-protein coupled receptor 35 (Homo sapiens, UniProt Q9HC97); assay: inhibition of zaprinast-stimulated GPR35 beta-arrestin translocation – imaging, U2OS, beta-arrestin-GFP, zaprinast agonist, primary screen (AID 2058); format: functional;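 note: antagonist potency meaning inhibition of agonist-induced arrestin redistribution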
T4 sequence (Q9HC97 whole entry): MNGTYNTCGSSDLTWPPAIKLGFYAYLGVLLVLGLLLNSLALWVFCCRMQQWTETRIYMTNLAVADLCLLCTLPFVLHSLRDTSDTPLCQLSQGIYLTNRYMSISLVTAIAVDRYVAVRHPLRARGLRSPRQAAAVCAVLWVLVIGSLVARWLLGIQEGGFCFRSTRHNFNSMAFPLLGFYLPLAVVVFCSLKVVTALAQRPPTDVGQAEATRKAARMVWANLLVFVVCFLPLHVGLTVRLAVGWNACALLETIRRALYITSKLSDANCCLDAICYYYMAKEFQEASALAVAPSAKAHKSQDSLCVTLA

[4] = molecular target: T4, G-protein coupled receptor 35; assay: SAR analysis of Antagonists of the GPR35 Receptor using an Image-Based Assay - Set 5. [Related pubchem assays (depositor defined):AID2058, AID2079]; format: functional
[5] = molecular target: T4, G-protein coupled receptor 35; assay: SAR Analysis for the identification of Selective Antagonists of ERK1/2 Activity in GPR35-Overexpressing U2OS Cells - Set 2. [Related pubchem assays (depositor defined):AID2058, AID2079]; format: functional, cell-based
[6] = molecular target: T5, G-protein coupled receptor 55 (Homo sapiens, UniProt Q9Y2T6); assay: SAR Analysis of Selective Antagonists of GPR55 using an Image-Based Assay - Set 3. [Related pubchem assays (depositor defined):AID2058, AID2079]; format: functional
T5 sequence (Q9Y2T6 whole entry): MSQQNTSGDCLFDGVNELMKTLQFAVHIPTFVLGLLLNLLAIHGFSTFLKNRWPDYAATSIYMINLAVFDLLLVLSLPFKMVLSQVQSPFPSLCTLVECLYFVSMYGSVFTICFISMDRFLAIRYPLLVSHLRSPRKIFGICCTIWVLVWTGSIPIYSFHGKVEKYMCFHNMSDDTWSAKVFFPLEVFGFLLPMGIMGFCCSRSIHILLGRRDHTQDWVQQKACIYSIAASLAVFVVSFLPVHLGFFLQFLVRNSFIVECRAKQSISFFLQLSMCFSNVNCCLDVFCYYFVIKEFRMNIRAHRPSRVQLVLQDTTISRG

Coagulation factor XII = molecular target: T6, Coagulation factor XII (Homo sapiens, UniProt P00748); assay: Factor XIIa Dose Response Confirmation from Single Well HTS. [Related pubchem assays (depositor defined):AID701]; format: functional
T6 sequence (P00748 whole entry): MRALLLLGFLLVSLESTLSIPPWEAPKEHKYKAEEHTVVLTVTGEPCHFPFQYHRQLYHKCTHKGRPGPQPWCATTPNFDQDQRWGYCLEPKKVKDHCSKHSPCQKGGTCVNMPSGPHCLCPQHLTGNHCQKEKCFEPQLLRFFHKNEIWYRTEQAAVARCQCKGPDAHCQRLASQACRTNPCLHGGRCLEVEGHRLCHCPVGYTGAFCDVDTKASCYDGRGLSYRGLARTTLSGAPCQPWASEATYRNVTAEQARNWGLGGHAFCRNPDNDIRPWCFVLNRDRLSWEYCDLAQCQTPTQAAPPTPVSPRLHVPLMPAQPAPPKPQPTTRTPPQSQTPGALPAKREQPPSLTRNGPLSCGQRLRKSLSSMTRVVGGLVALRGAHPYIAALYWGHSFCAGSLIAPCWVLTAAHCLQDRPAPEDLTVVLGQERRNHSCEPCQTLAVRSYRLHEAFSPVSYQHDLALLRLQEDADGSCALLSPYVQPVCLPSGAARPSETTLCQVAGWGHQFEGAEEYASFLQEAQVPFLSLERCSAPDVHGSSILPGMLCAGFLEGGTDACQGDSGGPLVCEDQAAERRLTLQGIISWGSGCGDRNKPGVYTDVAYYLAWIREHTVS

[7] = molecular target: 1-acylglycerol-3-phosphate O-acyltransferase ABHD5/Perilipin-5 (Homo sapiens, UniProt Q00G26+Q8WTS1); assay: Luminescence-based biochemical high throughput dose response assay for inhibitors of the interaction of the lipase co-activator protein, abhydrolase domain containing 5 (ABHD5) with perilipin-5 (MLDP; PLIN5) (2K validation set). [Related pubchem assays (depositor defined):AID493035, AID493241]
Chain of 1-acylglycerol-3-phosphate O-acyltransferase ABHD5/Perilipin-5 (Q00G26 whole entry, the tested form may be a part): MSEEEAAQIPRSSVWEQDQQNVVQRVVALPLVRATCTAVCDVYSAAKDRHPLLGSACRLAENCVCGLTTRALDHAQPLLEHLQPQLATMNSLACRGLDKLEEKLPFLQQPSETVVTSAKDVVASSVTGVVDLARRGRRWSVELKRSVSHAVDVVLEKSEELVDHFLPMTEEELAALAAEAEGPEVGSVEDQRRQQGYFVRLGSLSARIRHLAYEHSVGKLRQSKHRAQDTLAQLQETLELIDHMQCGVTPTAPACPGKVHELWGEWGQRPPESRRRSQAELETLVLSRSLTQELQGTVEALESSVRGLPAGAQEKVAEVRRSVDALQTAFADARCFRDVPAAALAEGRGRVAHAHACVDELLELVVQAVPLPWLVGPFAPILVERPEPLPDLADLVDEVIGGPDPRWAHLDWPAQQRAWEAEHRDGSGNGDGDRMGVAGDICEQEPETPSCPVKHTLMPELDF
Chain of 1-acylglycerol-3-phosphate O-acyltransferase ABHD5/Perilipin-5 (Q8WTS1 whole entry, the tested form may be a part): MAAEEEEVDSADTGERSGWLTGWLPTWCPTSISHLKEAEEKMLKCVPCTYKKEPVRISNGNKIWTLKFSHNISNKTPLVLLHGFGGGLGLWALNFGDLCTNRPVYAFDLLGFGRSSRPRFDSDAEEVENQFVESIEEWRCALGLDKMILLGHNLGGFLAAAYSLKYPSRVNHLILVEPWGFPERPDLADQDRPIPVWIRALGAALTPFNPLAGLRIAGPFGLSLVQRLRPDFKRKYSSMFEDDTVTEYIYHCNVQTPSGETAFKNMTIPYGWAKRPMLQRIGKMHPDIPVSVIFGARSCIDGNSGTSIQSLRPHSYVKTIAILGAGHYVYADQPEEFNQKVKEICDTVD

Perilipin-1/ABHD5 = Perilipin-1/ABHD5 (Homo sapiens, UniProt O60240+Q8WTS1); assay: Luminescence-based biochemical high throughput dose response assay for inhibitors of the interaction of the lipase co-activator protein, abhydrolase domain containing 5 (ABHD5) with perilipin-1 (PLIN1) (2K validation set). [Related pubchem assays (depositor defined):AID493027, AID493057]
Chain of Perilipin-1/ABHD5 (Q8WTS1 whole entry, the tested form may be a part): as above
Chain of Perilipin-1/ABHD5 (O60240 whole entry, the tested form may be a part): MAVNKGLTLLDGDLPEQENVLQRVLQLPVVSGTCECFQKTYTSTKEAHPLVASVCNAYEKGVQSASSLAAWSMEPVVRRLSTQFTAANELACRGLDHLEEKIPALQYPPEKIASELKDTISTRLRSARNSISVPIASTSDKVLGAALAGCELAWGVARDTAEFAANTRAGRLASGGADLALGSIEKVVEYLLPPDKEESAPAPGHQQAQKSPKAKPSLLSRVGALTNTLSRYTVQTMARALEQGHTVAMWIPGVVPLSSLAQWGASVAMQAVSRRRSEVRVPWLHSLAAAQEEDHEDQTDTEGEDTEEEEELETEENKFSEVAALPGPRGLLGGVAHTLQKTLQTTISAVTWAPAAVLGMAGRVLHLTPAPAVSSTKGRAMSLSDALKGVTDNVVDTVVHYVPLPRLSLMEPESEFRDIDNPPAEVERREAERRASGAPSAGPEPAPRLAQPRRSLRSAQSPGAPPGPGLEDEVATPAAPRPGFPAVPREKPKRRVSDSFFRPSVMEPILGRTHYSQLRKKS

[8] = molecular target: T5, G-protein coupled receptor 55; assay: inhibition of LPI-stimulated GPR55 beta-arrestin translocation – imaging, U2OS, beta-arrestin-GFP, LPI agonist, primary screen (AID 2013); format: functional;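 note: antagonist potency measured as reduced agonist-driven arrestin aggregation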
Beta-galactosidase = Beta-galactosidase (Escherichia coli, UniProt Q8VNN2); assay: detection-enzyme interference by beta-gal modulators – biochemical, E. coli enzyme, set 3, artefact control for CCR6 antagonist project, dose response (AID 504712); format: functional
Chain of Beta-galactosidase (Q8VNN2 whole entry): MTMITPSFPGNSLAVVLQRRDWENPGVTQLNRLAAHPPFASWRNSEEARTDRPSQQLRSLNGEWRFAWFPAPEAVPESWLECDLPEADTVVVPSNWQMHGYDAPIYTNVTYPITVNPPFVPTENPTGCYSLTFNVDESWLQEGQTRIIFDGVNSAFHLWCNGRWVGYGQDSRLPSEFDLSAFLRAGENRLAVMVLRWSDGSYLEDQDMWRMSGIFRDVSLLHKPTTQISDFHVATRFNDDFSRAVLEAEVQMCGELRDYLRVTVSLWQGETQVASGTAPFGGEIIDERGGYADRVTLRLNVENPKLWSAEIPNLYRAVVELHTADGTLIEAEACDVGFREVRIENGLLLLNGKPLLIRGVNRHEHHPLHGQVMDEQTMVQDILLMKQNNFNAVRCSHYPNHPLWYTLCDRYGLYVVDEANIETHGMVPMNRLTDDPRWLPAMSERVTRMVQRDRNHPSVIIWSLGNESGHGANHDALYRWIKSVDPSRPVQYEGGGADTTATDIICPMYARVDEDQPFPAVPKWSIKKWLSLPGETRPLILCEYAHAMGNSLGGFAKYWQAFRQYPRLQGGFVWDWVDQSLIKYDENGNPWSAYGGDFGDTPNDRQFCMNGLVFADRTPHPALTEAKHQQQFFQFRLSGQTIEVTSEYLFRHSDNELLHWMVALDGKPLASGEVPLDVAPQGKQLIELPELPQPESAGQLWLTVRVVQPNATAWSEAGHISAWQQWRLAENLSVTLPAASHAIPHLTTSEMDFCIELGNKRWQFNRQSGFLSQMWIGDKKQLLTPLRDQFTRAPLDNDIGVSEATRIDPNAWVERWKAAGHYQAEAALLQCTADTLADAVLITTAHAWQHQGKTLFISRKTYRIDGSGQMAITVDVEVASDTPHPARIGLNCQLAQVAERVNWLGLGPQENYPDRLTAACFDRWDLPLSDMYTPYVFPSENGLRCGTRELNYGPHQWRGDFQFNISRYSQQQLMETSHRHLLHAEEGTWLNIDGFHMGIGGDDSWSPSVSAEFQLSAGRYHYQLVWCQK

HEK293 [9] = assay: inhibition of NOD1-driven NF-kB reporter – cell-based, luminescence, uHTS, primary screen (AID 1578); format: functional; conditions: Homo sapiens
[10] = system: Streptococcus sp. 'group A'; assay: Streptococcus pyogenes SK(-)GAS viability under kanamycin – luminescence, BacTiterGlo, confirmation, counter-screen for streptokinase expression inhibitor project, dose response (AID 1900); format: functional, organism-based
HEK293 [11] = assay: cells; format: functional, cell-based; conditions: Homo sapiens
Streptokinase A = molecular target: T7, Streptokinase A (Streptococcus pyogenes serotype M1, UniProt P10520); assay: viability-normalized secreted streptokinase activity reduction – plasminogen activation absorbance, OD405, dose response (AID 1914); format: functional, Streptococcus pyogenes M1 GAS;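 note: secreted streptokinase activity via plasminogen activation per viability signal from cell pellet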
T7 sequence (P10520 whole entry): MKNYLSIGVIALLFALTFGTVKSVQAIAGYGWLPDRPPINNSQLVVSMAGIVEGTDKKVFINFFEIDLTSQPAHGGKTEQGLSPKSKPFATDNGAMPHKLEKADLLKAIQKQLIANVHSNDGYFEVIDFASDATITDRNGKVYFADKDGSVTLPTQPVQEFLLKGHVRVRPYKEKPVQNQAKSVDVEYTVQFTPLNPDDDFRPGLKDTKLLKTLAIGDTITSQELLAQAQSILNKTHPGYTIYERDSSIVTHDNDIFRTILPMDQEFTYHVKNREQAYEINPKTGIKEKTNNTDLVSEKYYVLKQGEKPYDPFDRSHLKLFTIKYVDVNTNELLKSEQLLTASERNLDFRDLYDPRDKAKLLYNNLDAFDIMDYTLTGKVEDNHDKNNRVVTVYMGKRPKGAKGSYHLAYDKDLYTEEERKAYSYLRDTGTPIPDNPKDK

HEK293 [12] = assay: cells; format: functional, cell-based; conditions: Homo sapiens; remark: listed apart in the source
[13] = molecular target: T8, Nucleotide-binding oligomerization domain-containing protein 2 (Homo sapiens, UniProt Q9HC29); assay: inhibition of NOD2-driven NF-kB reporter – cell-based, luminescence, uHTS, HEK293 (AID 1566); format: functional
T8 sequence (Q9HC29 whole entry, the tested form may be a part): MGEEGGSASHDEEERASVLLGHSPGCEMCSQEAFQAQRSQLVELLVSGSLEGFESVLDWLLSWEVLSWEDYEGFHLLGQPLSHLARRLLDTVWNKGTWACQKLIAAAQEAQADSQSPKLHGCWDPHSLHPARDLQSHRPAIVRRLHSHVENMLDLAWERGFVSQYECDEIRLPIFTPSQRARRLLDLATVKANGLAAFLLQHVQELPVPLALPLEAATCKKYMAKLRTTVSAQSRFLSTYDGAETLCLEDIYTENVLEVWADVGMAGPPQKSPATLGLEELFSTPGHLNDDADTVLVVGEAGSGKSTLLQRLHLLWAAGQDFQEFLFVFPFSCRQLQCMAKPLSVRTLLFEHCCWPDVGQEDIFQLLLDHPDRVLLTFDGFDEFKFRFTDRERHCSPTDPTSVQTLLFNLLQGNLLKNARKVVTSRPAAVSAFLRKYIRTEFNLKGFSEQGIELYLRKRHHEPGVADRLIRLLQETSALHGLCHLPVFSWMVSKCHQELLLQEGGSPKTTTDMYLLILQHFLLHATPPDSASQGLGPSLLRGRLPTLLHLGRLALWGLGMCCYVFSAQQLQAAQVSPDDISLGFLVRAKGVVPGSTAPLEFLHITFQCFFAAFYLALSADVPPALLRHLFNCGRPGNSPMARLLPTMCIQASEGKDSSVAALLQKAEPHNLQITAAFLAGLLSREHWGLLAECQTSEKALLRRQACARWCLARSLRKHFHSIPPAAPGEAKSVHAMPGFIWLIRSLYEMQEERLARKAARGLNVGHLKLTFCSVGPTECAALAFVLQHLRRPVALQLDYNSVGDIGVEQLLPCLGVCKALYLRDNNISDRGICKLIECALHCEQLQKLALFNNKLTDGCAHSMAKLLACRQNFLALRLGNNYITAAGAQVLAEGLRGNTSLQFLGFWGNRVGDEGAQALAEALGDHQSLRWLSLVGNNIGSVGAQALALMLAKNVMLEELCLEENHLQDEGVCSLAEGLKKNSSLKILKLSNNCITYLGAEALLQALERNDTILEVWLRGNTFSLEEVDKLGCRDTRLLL

HEK293 [14] = assay: NOD2 signaling inhibitors in MDP-stimulated cells, cell-based, uHTS, luminescence (AID 2001); format: functional; conditions: Homo sapiens
HEK293 [15] = assay: cells; format: functional, cell-based; conditions: Homo sapiens; remark: listed apart in the source
Streptococcus = assay: GAS UMAA2166 growth inhibition – luminescence, BacTiterGlo, counter-screen for streptokinase expression inhibitor project, dose response (AID 1915); format: functional, organism-based;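 note: potency for reduction of bacterial viability or growth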
[16] = molecular target: T8, Nucleotide-binding oligomerization domain-containing protein 2; assay: inhibition of NOD2 signaling – set 2, SAR follow-up (AID 2475); format: functional
Tumor necrosis factor = Tumor necrosis factor (Homo sapiens, UniProt P01375); assay: analog potency on TNFa NF-kB signaling – cell-based, revised, SAR follow-up (AID 2337); format: functional
Chain of Tumor necrosis factor (P01375 whole entry): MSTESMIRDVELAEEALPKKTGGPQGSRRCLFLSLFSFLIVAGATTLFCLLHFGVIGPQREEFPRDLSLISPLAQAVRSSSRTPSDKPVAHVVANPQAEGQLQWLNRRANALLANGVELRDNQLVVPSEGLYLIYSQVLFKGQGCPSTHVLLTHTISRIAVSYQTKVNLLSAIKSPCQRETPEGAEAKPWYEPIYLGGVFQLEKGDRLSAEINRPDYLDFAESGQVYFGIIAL

[17] = THP-1 cell cytotoxicity, dose response, cytotoxicity control for non-replicating M. tuberculosis project (AID 489025); format: functional
HEK293 [18] = assay: SAR analysis of compounds that are cytotoxic to HEK293 - Set 2. [Related pubchem assays (depositor defined):AID1575, AID1578, AID1849, AID2001, AID2333, AID2334, AID2335, AID2337, AID2800]; format: functional, cell-based; conditions: Homo sapiens
[19] = molecular target: T9, Nucleotide-binding oligomerization domain-containing protein 1 (Homo sapiens, UniProt Q9Y239); assay: blockers of NOD1 pathway activity – revised, SAR follow-up (AID 2333); format: functional
T9 sequence (Q9Y239 whole entry): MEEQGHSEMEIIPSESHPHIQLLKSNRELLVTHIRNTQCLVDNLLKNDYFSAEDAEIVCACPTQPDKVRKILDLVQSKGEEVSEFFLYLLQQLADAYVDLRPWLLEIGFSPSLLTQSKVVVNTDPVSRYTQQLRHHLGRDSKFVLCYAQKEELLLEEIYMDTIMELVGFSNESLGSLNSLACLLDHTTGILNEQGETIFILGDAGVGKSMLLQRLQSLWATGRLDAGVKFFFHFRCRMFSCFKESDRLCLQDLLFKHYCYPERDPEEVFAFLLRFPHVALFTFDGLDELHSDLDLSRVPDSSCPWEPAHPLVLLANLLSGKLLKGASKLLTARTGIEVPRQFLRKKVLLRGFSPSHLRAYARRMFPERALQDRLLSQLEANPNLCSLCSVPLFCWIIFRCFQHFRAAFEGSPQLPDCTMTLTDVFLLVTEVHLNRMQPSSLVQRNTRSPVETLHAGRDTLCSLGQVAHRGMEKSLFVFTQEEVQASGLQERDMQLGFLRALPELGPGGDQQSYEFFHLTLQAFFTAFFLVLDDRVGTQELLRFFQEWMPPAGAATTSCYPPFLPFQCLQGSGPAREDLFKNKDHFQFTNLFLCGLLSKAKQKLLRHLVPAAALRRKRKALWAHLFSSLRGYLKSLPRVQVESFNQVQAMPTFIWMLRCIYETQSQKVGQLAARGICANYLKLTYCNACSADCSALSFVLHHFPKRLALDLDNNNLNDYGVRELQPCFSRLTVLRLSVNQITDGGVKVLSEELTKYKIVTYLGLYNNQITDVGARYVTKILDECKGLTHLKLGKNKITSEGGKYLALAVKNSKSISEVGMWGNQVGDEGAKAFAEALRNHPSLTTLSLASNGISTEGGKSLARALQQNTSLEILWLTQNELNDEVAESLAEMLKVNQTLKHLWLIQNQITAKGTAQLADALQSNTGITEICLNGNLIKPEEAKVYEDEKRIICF

[20] = HepG2 cell cytotoxicity, dose response, cytotoxicity control for non-replicating M. tuberculosis project (AID 489018); format: functional; conditions: Mycobacterium tuberculosis
[21] = Vero E6 cell cytotoxicity, dose response, cytotoxicity control for non-replicating M. tuberculosis project, secondary assay (AID 492998); format: functional, VeroE6; conditions: Vero C1008
[22] = molecular target: T8, Nucleotide-binding oligomerization domain-containing protein 2; assay: PubChem AID 2334; format: functional
cells = format: functional
HEK293 [23] = assay: cells; conditions: Homo sapiens

## COc1ccccc1Nc1nc2c(C)cccc2cc1C#N
Caspase-3
  EC50: 3.54 µM (active)
Caspase-7
  EC50: 9.49 µM (active)
[1]
  EC50: > 99 µM (inactive)
[2]
  EC50: 7.39 µM (active)

## COc1ccccc1CNC(=O)COc1ccc(C)cc1
T-cell
  EC50: 22.1 µM (active)

## CNC(=S)N/N=C/c1c(C(=O)OC)cnn1-c1ccc(F)cc1F
[3]
  IC50: 1.11 µM (active)
[4]
  IC50: 2.49 µM (active)
[5]
  IC50: 2.29 µM (active)
[6]
  IC50: > 32 µM (inactive)

## Cc1cc(NC(=O)C(C)C)ncc1NC(=O)Cc1ccccc1
Coagulation factor XII
  IC50: > 50 µM (inactive)

## O=C(/C=C/c1ccc2c(c1)OCO2)c1ccccn1
[7]
  IC50: 6.96 µM (active)
Perilipin-1/ABHD5
  IC50: 6.85 µM (active)

## CCSc1nnc2nc3c(c(O)n12)C1(CCCCC1)Cc1ccccc1-3
[8]
  IC50: 8.6 µM (active)

## O=C(NC(=S)N1CCN(c2ccc(C(F)(F)F)cc2[N+](=O)[O-])CC1)c1cccs1
Beta-galactosidase
  IC50: > 66.6 µM (inactive)

## CCC(=O)Nc1nc2ccccc2n1Cc1ccccc1Cl
HEK293 [9]
  EC50: > 20 µM (inactive)
[10]
  EC50: 6.44 µM (active)
HEK293 [11]
  IC50: > 20 µM (inactive)
Streptokinase A
  EC50: > 150 µM (not active)
HEK293 [12]
  IC50: > 20 µM (inactive)
[13]
  EC50: > 20 µM (inactive)
HEK293 [14]
  IC50: 3.8 µM (active)
HEK293 [15]
  IC50: > 20 µM (inactive)
Streptococcus
  EC50: 105 µM (active)
[16]
  IC50: 5.24 µM (active)
Tumor necrosis factor
  IC50: > 20 µM (inactive)
[17]
  CC50: 29.7 µM (active)
HEK293 [18]
  IC50: > 20 µM (inactive)
[19]
  IC50: > 20 µM (inactive)
[20]
  CC50: > 20 µM (active)
[21]
  CC50: 10.9 µM (active)
[22]
  IC50: > 20 µM (inactive)
cells
  IC50: 0.21 µM (active)
HEK293 [23]
  IC50: > 20 µM (inactive)
